Source: article PMC5218480 (PLoS ONE, 2017)

Tested on: MV-4-11 cells
Test: Gene expression microarray analysis (Affymetrix PrimeView) and GSEA
Assay type: cell-based, human
Parameters: RFU PODN (11730768_x_at) / Fold change /veh PODN (11730768_x_at) / RFU LINC00158 (11744669_a_at) / Fold change /veh LINC00158 (11744669_a_at) / RFU DUSP10 (11751237_a_at) / Fold change /veh DUSP10 (11751237_a_at) / RFU ID3 (11757404_x_at) / Fold change /veh ID3 (11757404_x_at) / RFU PLEKHG5 (11737974_s_at) / Fold change /veh PLEKHG5 (11737974_s_at) / RFU LRRC4B (11730491_at) / Fold change /veh LRRC4B (11730491_at) / RFU GIMAP4 (11747438_a_at) / Fold change /veh GIMAP4 (11747438_a_at) / RFU KRT8 (11758183_x_at) / Fold change /veh KRT8 (11758183_x_at) / RFU CNN1 (11734310_a_at) / Fold change /veh CNN1 (11734310_a_at) / RFU VPS37D (11726825_at) / Fold change /veh VPS37D (11726825_at) / RFU C10orf10 (11716522_x_at) / Fold change /veh C10orf10 (11716522_x_at) / RFU KIR2DL2 /// KIR2DL4 /// KIR2DL5A /// KIR2DL5B /// KIR2DS1 /// KIR2DS2 /// KIR2DS3 /// KIR2DS4 /// KIR3DL3 /// KIR3DL3 /// KIR3DS1 (11738374_at) / Fold change /veh KIR2DL2 /// KIR2DL4 /// KIR2DL5A /// KIR2DL5B /// KIR2DS1 /// KIR2DS2 /// KIR2DS3 /// KIR2DS4 /// KIR3DL3 /// KIR3DL3 /// KIR3DS1 (11738374_at) / RFU C1QL1 (11718748_at) / Fold change /veh C1QL1 (11718748_at) / RFU TMPRSS4 (11747572_a_at) / Fold change /veh TMPRSS4 (11747572_a_at) / RFU HAMP (11756126_x_at) / Fold change /veh HAMP (11756126_x_at) / RFU RNFT2 (11725882_a_at) / Fold change /veh RNFT2 (11725882_a_at) / RFU NR4A2 (11747474_a_at) / Fold change /veh NR4A2 (11747474_a_at) / RFU ABCC12 (11746883_a_at) / Fold change /veh ABCC12 (11746883_a_at) / RFU TMEM136 (11760407_x_at) / Fold change /veh TMEM136 (11760407_x_at) / RFU CLDN22 /// WWC2 (11732394_at) / Fold change /veh CLDN22 /// WWC2 (11732394_at) / RFU HLA-DPB1 (11760878_x_at) / Fold change /veh HLA-DPB1 (11760878_x_at) / RFU SPINT1 (11716480_a_at) / Fold change /veh SPINT1 (11716480_a_at) / RFU GAP43 (11754022_s_at) / Fold change /veh GAP43 (11754022_s_at) / RFU A4GNT (11735810_at) / Fold change /veh A4GNT (11735810_at) / RFU PRB3 (11715151_x_at) / Fold change /veh PRB3 (11715151_x_at) / RFU TUBB4B (11761932_at) / Fold change /veh TUBB4B (11761932_at) / RFU CAPN14 (11732068_a_at) / Fold change /veh CAPN14 (11732068_a_at) / RFU TMCC2 (11721928_a_at) / Fold change /veh TMCC2 (11721928_a_at) / RFU IRGQ (11745062_a_at) / Fold change /veh IRGQ (11745062_a_at) / RFU FAM174B (11720279_a_at) / Fold change /veh FAM174B (11720279_a_at) / RFU TMPRSS4 (11748680_a_at) / Fold change /veh TMPRSS4 (11748680_a_at) / RFU FAM212B (11763350_a_at) / Fold change /veh FAM212B (11763350_a_at) / RFU PLEKHG5 (11743358_a_at) / Fold change /veh PLEKHG5 (11743358_a_at) / RFU ZSCAN30 (11745921_a_at) / Fold change /veh ZSCAN30 (11745921_a_at) / RFU CMKLR1 (11741424_a_at) / Fold change /veh CMKLR1 (11741424_a_at) / RFU LOC101060620 /// MAPK8IP1 (11723275_at) / Fold change /veh LOC101060620 /// MAPK8IP1 (11723275_at) / RFU SPTSSB (11747773_x_at) / Fold change /veh SPTSSB (11747773_x_at) / RFU PRSS12 (11739890_at) / Fold change /veh PRSS12 (11739890_at) / RFU BIN1 (11741810_x_at) / Fold change /veh BIN1 (11741810_x_at) / RFU WNT11 (11732464_a_at) / Fold change /veh WNT11 (11732464_a_at) / RFU C10orf10 (11716521_a_at) / Fold change /veh C10orf10 (11716521_a_at) / RFU C5orf56 (11738089_at) / Fold change /veh C5orf56 (11738089_at) / RFU CYB561 (11721691_x_at) / Fold change /veh CYB561 (11721691_x_at) / RFU ANKRD19P (11752326_a_at) / Fold change /veh ANKRD19P (11752326_a_at) / RFU OR2T12 /// OR2T33 /// OR2T8 (11738714_s_at) / Fold change /veh OR2T12 /// OR2T33 /// OR2T8 (11738714_s_at) / RFU VCAN (11748164_a_at) / Fold change /veh VCAN (11748164_a_at) / RFU JSRP1 (11732532_at) / Fold change /veh JSRP1 (11732532_at) / RFU KRTAP10-11 (11738290_x_at) / Fold change /veh KRTAP10-11 (11738290_x_at) / RFU MYO3A (11730013_a_at) / Fold change /veh MYO3A (11730013_a_at) / RFU EBF3 (11725865_a_at) / Fold change /veh EBF3 (11725865_a_at) / RFU CAMK2N1 (11719241_x_at) / Fold change /veh CAMK2N1 (11719241_x_at) / RFU C5orf56 (11738088_a_at) / Fold change /veh C5orf56 (11738088_a_at) / RFU OLFML3 (11715873_a_at) / Fold change /veh OLFML3 (11715873_a_at) / RFU LOC100653217 /// NTM (11731650_a_at) / Fold change /veh LOC100653217 /// NTM (11731650_a_at) / RFU MAPK11 (11762145_a_at) / Fold change /veh MAPK11 (11762145_a_at) / RFU FIZ1 (11724087_x_at) / Fold change /veh FIZ1 (11724087_x_at) / RFU OASL (11726364_x_at) / Fold change /veh OASL (11726364_x_at) / RFU SOX15 (11748057_x_at) / Fold change /veh SOX15 (11748057_x_at) / RFU CD79A (11719716_a_at) / Fold change /veh CD79A (11719716_a_at) / RFU HIST1H1D (11736915_at) / Fold change /veh HIST1H1D (11736915_at) / RFU CASKIN2 (11723855_a_at) / Fold change /veh CASKIN2 (11723855_a_at) / RFU LOC730098 (11760151_x_at) / Fold change /veh LOC730098 (11760151_x_at) / RFU OR4N2 (11742367_at) / Fold change /veh OR4N2 (11742367_at) / RFU PRRT2 (11749266_a_at) / Fold change /veh PRRT2 (11749266_a_at) / RFU SNX32 (11753110_a_at) / Fold change /veh SNX32 (11753110_a_at) / RFU CDHR5 (11726645_a_at) / Fold change /veh CDHR5 (11726645_a_at) / RFU RCAN1 (11760418_a_at) / Fold change /veh RCAN1 (11760418_a_at) / RFU FAM167A (11723789_a_at) / Fold change /veh FAM167A (11723789_a_at) / RFU FAM26E (11764081_at) / Fold change /veh FAM26E (11764081_at) / RFU ISYNA1 (11749810_s_at) / Fold change /veh ISYNA1 (11749810_s_at) / RFU ACY1 (11761880_at) / Fold change /veh ACY1 (11761880_at) / RFU 11764098_at / Fold change /veh 11764098_at / RFU SAMD14 (11745864_x_at) / Fold change /veh SAMD14 (11745864_x_at) / RFU NPB (11741838_a_at) / Fold change /veh NPB (11741838_a_at) / RFU TMPRSS6 (11731388_a_at) / Fold change /veh TMPRSS6 (11731388_a_at) / RFU KRTAP10-2 (11738614_at) / Fold change /veh KRTAP10-2 (11738614_at) / RFU ARHGAP8 /// PRR5-ARHGAP8 (11727945_x_at) / Fold change /veh ARHGAP8 /// PRR5-ARHGAP8 (11727945_x_at) / RFU KRTAP5-7 /// NADSYN1 (11734609_at) / Fold change /veh KRTAP5-7 /// NADSYN1 (11734609_at) / RFU RASL12 (11751679_a_at) / Fold change /veh RASL12 (11751679_a_at) / RFU CDKN2B (11736163_a_at) / Fold change /veh CDKN2B (11736163_a_at) / RFU PRF1 (11729649_at) / Fold change /veh PRF1 (11729649_at) / RFU, ZNF638 /// ZNF638-IT1 / Fold change vs veh, ZNF638 /// ZNF638-IT1 / RFU, PANK3 / Fold change vs veh, PANK3 / RFU, SH3YL1 / Fold change vs veh, SH3YL1 / RFU, ZEB2 / Fold change vs veh, ZEB2 / RFU, NRIP1 / Fold change vs veh, NRIP1 / RFU, PTTG1IP / Fold change vs veh, PTTG1IP / RFU, CAPN2 / Fold change vs veh, CAPN2 / RFU, MED14 / Fold change vs veh, MED14 / RFU, SNORA58 / Fold change vs veh, SNORA58 / RFU, C1orf63 / Fold change vs veh, C1orf63 / RFU, LRRFIP1 / Fold change vs veh, LRRFIP1 / RFU, NDUFAF7 / Fold change vs veh, NDUFAF7 / RFU, SLC12A2 / Fold change vs veh, SLC12A2 / RFU, IBTK / Fold change vs veh, IBTK / RFU, ESF1 / Fold change vs veh, ESF1 / Fold change vs veh, TMEM50B / RFU, TAOK1 / Fold change vs veh, TAOK1 / RFU, ACBD3 / Fold change vs veh, ACBD3 / RFU, TMA16 / Fold change vs veh, TMA16 / RFU, RWDD3 / Fold change vs veh, RWDD3 / RFU, BCAT1 / Fold change vs veh, BCAT1 / RFU, EDEM3 / Fold change vs veh, EDEM3 / RFU, TMEM33 / Fold change vs veh, TMEM33 / RFU, WDR75 / Fold change vs veh, WDR75 / RFU, AHCTF1 / Fold change vs veh, AHCTF1 / RFU, TFRC / Fold change vs veh, TFRC / RFU, ZDHHC17 / Fold change vs veh, ZDHHC17 / RFU, NOM1 / Fold change vs veh, NOM1 / RFU, ARL8B / Fold change vs veh, ARL8B / RFU, ZBTB11 / Fold change vs veh, ZBTB11 / RFU, TAMM41 / Fold change vs veh, TAMM41 / RFU, KIAA1704 /// LOC100996395 / Fold change vs veh, KIAA1704 /// LOC100996395 / RFU, ING1 / Fold change vs veh, ING1 / RFU, TRMT61B / Fold change vs veh, TRMT61B / RFU, FUBP3 / Fold change vs veh, FUBP3 / RFU, TP53 / Fold change vs veh, TP53 / RFU, TNKS2 / Fold change vs veh, TNKS2 / RFU, ZFP14 / Fold change vs veh, ZFP14 / RFU, ACTR2 / Fold change vs veh, ACTR2 / RFU, PPP3R1 / Fold change vs veh, PPP3R1 / RFU, PIK3R1 / Fold change vs veh, PIK3R1 / RFU, HNRNPA1 / Fold change vs veh, HNRNPA1 / RFU, RNF170 / Fold change vs veh, RNF170 / RFU, ZNF28 / Fold change vs veh, ZNF28 / RFU, RNGTT / Fold change vs veh, RNGTT / RFU, OGT / Fold change vs veh, OGT / RFU, BRD1 / Fold change vs veh, BRD1 / RFU, MARS / Fold change vs veh, MARS / RFU, ZNF655 / Fold change vs veh, ZNF655 / RFU, FAHD1 / Fold change vs veh, FAHD1 / RFU, BDP1 / Fold change vs veh, BDP1 / RFU, LRRCC1 / Fold change vs veh, LRRCC1 / RFU, ARID1A / Fold change vs veh, ARID1A / RFU, ZNF146 / Fold change vs veh, ZNF146 / RFU, ZNF330 / Fold change vs veh, ZNF330 / RFU, GPN3 / Fold change vs veh, GPN3 / RFU, C9orf123 / Fold change vs veh, C9orf123 / RFU, N4BP2L2 / Fold change vs veh, N4BP2L2 / RFU, ARFIP1 / Fold change vs veh, ARFIP1 / RFU, FAM179B / Fold change vs veh, FAM179B / RFU, BCL10 / Fold change vs veh, BCL10 / RFU, UHRF1BP1L / Fold change vs veh, UHRF1BP1L / RFU, BET1 / Fold change vs veh, BET1 / RFU, CNOT2 / Fold change vs veh, CNOT2 / RFU, ZNF268 / Fold change vs veh, ZNF268 / Fold change vs veh, ZNF507 / RFU, DGCR2 / Fold change vs veh, DGCR2 / RFU, WDSUB1 / Fold change vs veh, WDSUB1 / Fold change vs veh, HSP90B1 /// MIR3652 / RFU, ADSS / Fold change vs veh, ADSS / RFU, GK / Fold change vs veh, GK / RFU, ZNF148 / Fold change vs veh, ZNF148 / RFU, TAF9 / Fold change vs veh, TAF9 / RFU, SLC1A5 / Fold change vs veh, SLC1A5 / RFU, SLMO2 / Fold change vs veh, SLMO2 / RFU, ABCC4 / Fold change vs veh, ABCC4 / RFU, LOC101060439 /// RAP1B / Fold change vs veh, LOC101060439 /// RAP1B / RFU, RFX7 / Fold change vs veh, RFX7 / RFU, GTPBP10 / Fold change vs veh, GTPBP10 / RFU, CNEP1R1 / Fold change vs veh, CNEP1R1 / RFU, BIVM-ERCC5 /// ERCC5 / Fold change vs veh, BIVM-ERCC5 /// ERCC5 / RFU, ILF3 / Fold change vs veh, ILF3 / RFU 11762660_at / Fold change /veh 11762660_at / RFU VCAN (11757783_s_at) / Fold change /veh VCAN (11757783_s_at) / RFU DDX43 (11728927_at) / Fold change /veh DDX43 (11728927_at) / RFU KRT8 (11758188_x_at) / Fold change /veh KRT8 (11758188_x_at) / RFU NKD1 (11759106_at) / Fold change /veh NKD1 (11759106_at) / RFU SRD5A1 (11742802_a_at) / Fold change /veh SRD5A1 (11742802_a_at) / RFU TPSAB1 /// TPSB2 (11721975_s_at) / Fold change /veh TPSAB1 /// TPSB2 (11721975_s_at) / RFU GSTM3 (11746129_a_at) / Fold change /veh GSTM3 (11746129_a_at) / RFU IL23R (11737362_x_at) / Fold change /veh IL23R (11737362_x_at) / RFU TMEM51 (11727254_a_at) / Fold change /veh TMEM51 (11727254_a_at) / RFU PIWIL2 (11732686_x_at) / Fold change /veh PIWIL2 (11732686_x_at) / RFU ORM1 (11744905_x_at) / Fold change /veh ORM1 (11744905_x_at) / RFU CCDC152 (11743942_at) / Fold change /veh CCDC152 (11743942_at) / RFU ECM1 (11717891_a_at) / Fold change /veh ECM1 (11717891_a_at) / RFU IL23R (11748794_a_at) / Fold change /veh IL23R (11748794_a_at) / RFU TNFAIP8L3 (11732012_x_at) / Fold change /veh TNFAIP8L3 (11732012_x_at) / RFU MBOAT4 (11741988_at) / Fold change /veh MBOAT4 (11741988_at) / RFU 11764193_at / Fold change /veh 11764193_at / RFU TMEM53 (11763286_at) / Fold change /veh TMEM53 (11763286_at) / RFU MAGEB2 (11727129_at) / Fold change /veh MAGEB2 (11727129_at) / RFU TMEM200A (11744735_a_at) / Fold change /veh TMEM200A (11744735_a_at) / RFU CCDC152 (11751479_a_at) / Fold change /veh CCDC152 (11751479_a_at) / RFU FAM211A (11726209_a_at) / Fold change /veh FAM211A (11726209_a_at) / RFU RGS16 (11746705_a_at) / Fold change /veh RGS16 (11746705_a_at) / RFU VCAN (11755009_s_at) / Fold change /veh VCAN (11755009_s_at) / RFU RHOB (11743442_s_at) / Fold change /veh RHOB (11743442_s_at) / RFU RGS16 (11720943_a_at) / Fold change /veh RGS16 (11720943_a_at) / RFU RGS16 (11720944_at) / Fold change /veh RGS16 (11720944_at) / RFU, VPS4B / Fold change vs veh, VPS4B / RFU, CREB1 / Fold change vs veh, CREB1 / RFU, DNAJC13 / Fold change vs veh, DNAJC13 / RFU, GNAQ / Fold change vs veh, GNAQ / RFU, CDK5R1 / Fold change vs veh, CDK5R1 / RFU, ZRANB3 / Fold change vs veh, ZRANB3 / RFU, CUL4A / Fold change vs veh, CUL4A / RFU, CCNY / Fold change vs veh, CCNY / RFU, UFL1 / Fold change vs veh, UFL1 / RFU, COG3 / Fold change vs veh, COG3 / RFU, DIAPH2 / Fold change vs veh, DIAPH2 / RFU, SKA2 / Fold change vs veh, SKA2 / RFU, AFF3 / Fold change vs veh, AFF3 / RFU, LMF1 / Fold change vs veh, LMF1 / RFU, IPO11 / Fold change vs veh, IPO11 / RFU, DFFB / Fold change vs veh, DFFB / RFU, FOXP1 / Fold change vs veh, FOXP1 / RFU, CARD8 / Fold change vs veh, CARD8 / RFU, STRN3 / Fold change vs veh, STRN3 / RFU, ADK / Fold change vs veh, ADK / RFU, RASSF2 / Fold change vs veh, RASSF2 / RFU, WIPF1 / Fold change vs veh, WIPF1 / RFU, LARP1B / Fold change vs veh, LARP1B / RFU, RASA1 / Fold change vs veh, RASA1 / RFU, RB1 / Fold change vs veh, RB1 / RFU, PPFIA1 / Fold change vs veh, PPFIA1 / RFU, MAT2A / Fold change vs veh, MAT2A / RFU, CCT5 / Fold change vs veh, CCT5 / RFU, WDR92 / Fold change vs veh, WDR92 / RFU, CUX1 / Fold change vs veh, CUX1 / RFU, TTC7A / Fold change vs veh, TTC7A / RFU, TMEM135 / Fold change vs veh, TMEM135 / RFU, DEPTOR / Fold change vs veh, DEPTOR / RFU, CPM / Fold change vs veh, CPM / RFU, DNAJB6 / Fold change vs veh, DNAJB6 / RFU, CACNA2D3 / Fold change vs veh, CACNA2D3 / RFU, DTX4 / Fold change vs veh, DTX4 / RFU, TFCP2 / Fold change vs veh, TFCP2 / RFU, GMCL1 /// GMCL1P1 / Fold change vs veh, GMCL1 /// GMCL1P1 / RFU, AEBP2 / Fold change vs veh, AEBP2 / RFU, SNHG1 /// SNORD22 /// SNORD25 /// SNORD26 /// SNORD27 /// SNORD28 /// SNORD29 /// SNORD31 / Fold change vs veh, SNHG1 /// SNORD22 /// SNORD25 /// SNORD26 /// SNORD27 /// SNORD28 /// SNORD29 /// SNORD31 / Fold change (Aza/veh), C12orf56 (ProbeSet 11735607_a_at) / Fold change (ACY-1035/veh), C12orf56 (ProbeSet 11735607_a_at) / Fold change (Aza/veh), FGFR1OP (ProbeSet 11751329_s_at) / Fold change (ACY-1035/veh), FGFR1OP (ProbeSet 11751329_s_at) / Fold change (Aza/veh), VPS36 (ProbeSet 11739960_a_at) / Fold change (ACY-1035/veh), VPS36 (ProbeSet 11739960_a_at) / RFU SYPL1 (11715823_x_at) / Fold change /veh SYPL1 (11715823_x_at) / RFU IGFBP7 (11715501_s_at) / Fold change /veh IGFBP7 (11715501_s_at) / RFU REEP3 (11722064_at) / Fold change /veh REEP3 (11722064_at) / RFU IGLL1 (11728026_x_at) / Fold change /veh IGLL1 (11728026_x_at): dose or concentration left out as unconfirmed
Conditions: gene VPS36; ACY-1035 vs DMSO; LIST F

Nc1ccc(-c2cccs2)cc1NC(=O)c1ccc2c(c1)cc(C1CC1)n2CCN1CCOCC1 [ACY-1035]
Fold change (ACY-1035/veh), VPS36 (ProbeSet 11739960_a_at): 0.53
